Two sequences from patent US5556744A, “Methods and compositions for diagnosing and treating certain HIV infected patients” (The Trustees of the University of Pennsylvania, priority 1994, dated 1996) can be followed below.

Design in all cases: species or system human
Assay [1] deals with maternal HIV+ sera (antibodies). As to the kind of experiment: RIA / ELISA binding of maternal HIV+ sera to gp120 and gp41 peptides (Example 3). In short, it runs like this: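 Maternal sera, diluted 1:50 and 1:500, were bound overnight at 4°C to peptides immobilized at 10 μg/ml (pH 9.6 carbonate) and blocked with 1% BSA. Read-out was ¹²⁵I-labelled anti-human IgG counts or HRP-TMB OD450. Signal with peptide minus without was expressed relative to seronegative serum.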

Assay [2] concerns sera samples (antibodies). As to the kind of experiment: ELISA peptide-binding of maternal sera, MN strain peptides (Example 7). The conditions noted are these: n = 5. As to the method:
This example provides additional sera screens using peptides corresponding to sequences of the MN strain. The sera samples (5 transmitters and 5 non-transmitters) were obtained from the NIH and differ from those screened in the previous studies. Peptide binding was analyzed by ELISA as described in Example 3.
(In general: ELISA stands for enzyme-linked immunosorbent assay.)

Assay [3] concerns maternal sera (antibodies). Kind of assay: ELISA peptide-binding of maternal sera (Example 6). In short, it runs like this: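 HIV-1 envelope peptides averaging 16 amino acids, covering external and transmembrane glycoprotein, were probed by ELISA. Third-trimester maternal sera, classed as transmitter or non-transmitter by child diagnosis, were each run on at least 40 peptides. Values give percent of sera binding a peptide.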

The test system of assay [4] is maternal serum samples (antibodies). As to the kind of experiment: ELISA peptide-binding of maternal sera, expanded peptide collection (Example 5). The source says:
The gp120 and gp41 peptides used in this experiment include peptides 60 [SEQ ID NO:9], 93 [SEQ ID NO:10], 94 [SEQ ID NO:1], 95 [SEQ ID NO:11], 96 [SEQ ID NO:12], 97 [SEQ ID NO:13], 59 [SEQ ID NO:14], 106 [SEQ ID NO:15], 107 [SEQ ID NO:[…]], 1029/33 [SEQ ID NO:2], p18p [SEQ ID NO:17], B138 [SEQ ID NO:3], 466 [SEQ ID NO:4], 497 [SEQ ID NO:18], 117 [SEQ ID NO:19], F560 [SEQ ID NO:20], 35 [SEQ ID NO:5], 120 [SEQ ID NO:21], 121 [SEQ ID NO:22], 123 [SEQ ID NO:23], 36 [SEQ ID NO:24], 40 [SEQ ID NO:25], 41 [SEQ ID NO:26], 649 [SEQ ID NO:6], 53 [SEQ ID NO:7], 55 [SEQ ID NO:27], 128 [SEQ ID NO:28], 129 [SEQ ID NO:29], 132 [SEQ ID NO:30], 57 [SEQ ID NO:8], and 1103/55 [SEQ ID NO:31] from Table 2. These peptides were synthesized based on the same HIV IIIB isolate as were the peptides of Table 2. Alternative designations for these peptides are provided in brackets.
Each of the peptides was at least 85% pure, making them suitable for ELISA analyses. The average length of these peptides was 18 amino acid residues, which allows for a certain degree of local flexibility and conformational folding, thus facilitating detection of antibody species with reactivities to shaped structures.
The maternal serum samples were obtained from the Mothers/Infants Cohort Study described in Example 1. For the ELISA peptide-binding analyses performed essentially as described in Example 3, maternal serum samples were diluted to 1:50 or 1:500 with blocking buffer (1% bovine serum albumin in phosphate-buffered saline containing 0.05% Tween 20). Binding was measured using 10 μg/mL peptide per well and was considered positive if the experimental/control OD450nm ratio was ≥2. Normal (HIV seronegative) human sera were used as controls.

Entries after “also recorded” stand apart in the source; their conditions may differ.

Consider ELDKWASLWNWFNITNWLWY [Peptide 53], for which the “Binding of maternal HIV+ serum to peptide (sera/NHS ratio)” value (shortened to “Binding … (sera/NHS ratio)”) in assay [1] (Serum No. 1, Non-Transmission Group) was “- (specific OD450 or cpm of sera sample binding to peptide divided by the specific OD450 or cpm of NHS sample binding to peptide, which value is less than 2)”; in assay [1] (Serum No. 2, Non-Transmission Group), “- (specific OD450 or cpm of sera sample binding to peptide divided by the specific OD450 or cpm of NHS sample binding to peptide, which value is less than 2)”; in assay [1] (Serum No. 3, Non-Transmission Group), “- (specific OD450 or cpm of sera sample binding to peptide divided by the specific OD450 or cpm of NHS sample binding to peptide, which value is less than 2)”; in assay [1] (Serum No. 4, Transmission Group), “- (specific OD450 or cpm of sera sample binding to peptide divided by the specific OD450 or cpm of NHS sample binding to peptide, which value is less than 2)”; in assay [1] (Serum No. 5, Transmission Group), “- (specific OD450 or cpm of sera sample binding to peptide divided by the specific OD450 or cpm of NHS sample binding to peptide, which value is less than 2)”; in assay [1] (Serum No. 6, Non-Transmission Group) it was “- (specific OD450 or cpm of sera sample binding to peptide divided by the specific OD450 or cpm of NHS sample binding to peptide, which value is less than 2)”. Also, the “Binding … (sera/NHS ratio)” value in assay [1] (Serum No. 7, Non-Transmission Group) is “++ (which value is greater than 3)”; in assay [1] (Serum No. 8, Non-Transmission Group), “- (specific OD450 or cpm of sera sample binding to peptide divided by the specific OD450 or cpm of NHS sample binding to peptide, which value is less than 2)”; in assay [1] (Serum No. 9, Non-Transmission Group) it was “- (specific OD450 or cpm of sera sample binding to peptide divided by the specific OD450 or cpm of NHS sample binding to peptide, which value is less than 2)”; in assay [1] (Serum No. 10, Transmission Group) it was “- (specific OD450 or cpm of sera sample binding to peptide divided by the specific OD450 or cpm of NHS sample binding to peptide, which value is less than 2)”; in assay [1] (Serum No. 11, Non-Transmission Group), “- (specific OD450 or cpm of sera sample binding to peptide divided by the specific OD450 or cpm of NHS sample binding to peptide, which value is less than 2)”; in assay [1] (Serum No. 12, Non-Transmission Group), “- (specific OD450 or cpm of sera sample binding to peptide divided by the specific OD450 or cpm of NHS sample binding to peptide, which value is less than 2)”. For the same sequence, the “Binding … (sera/NHS ratio)” value in assay [1] (Serum No. 13, Transmission Group) is given as “- (specific OD450 or cpm of sera sample binding to peptide divided by the specific OD450 or cpm of NHS sample binding to peptide, which value is less than 2)”; in assay [1] (Serum No. 14, Transmission Group), “- (specific OD450 or cpm of sera sample binding to peptide divided by the specific OD450 or cpm of NHS sample binding to peptide, which value is less than 2)”; in assay [1] (Serum No. 15, Transmission Group), “- (specific OD450 or cpm of sera sample binding to peptide divided by the specific OD450 or cpm of NHS sample binding to peptide, which value is less than 2)”; in assay [1] (Serum No. 16, Non-Transmission Group) it was “- (specific OD450 or cpm of sera sample binding to peptide divided by the specific OD450 or cpm of NHS sample binding to peptide, which value is less than 2)”; in assay [1] (Serum No. 17, Non-Transmission Group), “+ (which value is between 2 to 3)”; in assay [1] (Serum No. 18, Non-Transmission Group), “- (specific OD450 or cpm of sera sample binding to peptide divided by the specific OD450 or cpm of NHS sample binding to peptide, which value is less than 2)”. The “Binding … (sera/NHS ratio)” value in assay [1] (Serum No. 19, Transmission Group) is reported as “- (specific OD450 or cpm of sera sample binding to peptide divided by the specific OD450 or cpm of NHS sample binding to peptide, which value is less than 2)”; in assay [1] (Serum No. 20, Non-Transmission Group), “- (specific OD450 or cpm of sera sample binding to peptide divided by the specific OD450 or cpm of NHS sample binding to peptide, which value is less than 2)”. Besides, the “% Bound, Non-Transmitter” value in assay [2] (Non-Transmitter) is reported as 0%. The “No. of Sera Samples Bound, Non-Transmitter” value in assay [2] (Non-Transmitter) is given as 0. Also, the “% Bound, Transmitter” value in assay [2] (Transmitter) was determined as 0%. Besides, the “No. of Sera Samples Bound, Transmitter” value in assay [2] (Transmitter) was 0. Also, the “Number of Non-Transmitters which bound to peptide” value in assay [3] (Non-Transmitters, N = 12) amounted to 0. Further, in assay [3] (Non-Transmitters, N = 12), the “Percent of Non-Transmitters which bound to peptide” value came out at 0%. Moreover, the “Number of Transmitters which bound to peptide” value in assay [3] (Transmitters, N = 4) came out at 0. Further, in assay [3] (Transmitters, N = 4), the “Percent of Transmitters which bound to peptide” value is 0%.

With LGIWGCSGKLIC [Peptide 41-2], the “Binding / reactivity of maternal sera to peptide (in words)” value in assay [4] (Example 5) is “Virtually all samples reacted; also recorded: recognized by the transmission group”. The “Percent of both groups that bound to the peptide” value in assay [4] (transmission and non-transmission groups) was 90%.
